Test results taken from patent US5767119A, “Method of treating neurodegenerative diseases using an AMPA excitatory amino and an uricosuric agent” (Warner-Lambert Company, priority 1996, dated 1998).
Where two headings read alike, the source gives them in different places.

What was measured:
[1] = mouse, in vivo
Procedure: A follow-up study is performed in which tritiated 5,7-dichloro-1,4-dihydro-4-oxo-2-quinolinecarboxylic acid is injected directly into the cerebral ventricle of mice at two dose levels.

[2] = mouse, in vivo, iv
[3] = NMDA-induced brain injury (neuroprotection), injection into the striatum; assay type: in vivo, rat (seven-day-old albino pups)
Procedure: The neuroprotective action of 5,7-dichlorokynurenate is assessed using an animal model with young rats. Seven-day-old albino rat pups of either sex are anesthetized and given N-methyl-D-aspartate (NMDA) by injection with a fine hypodermic needle into the right posterior corpus striatum. Four days later, the degree of brain damage from NMDA injection is assessed by comparing wet weights of the injected cerebral hemispheres. Methods are similar to those of J. W. McDonald et al. in Experimental Neurology 106:289-296 (1989) except that 15 nmol of NMDA is used rather than 25 nmol as in the McDonald method. The neuroprotective action of 5,7-dichlorokynurenic acid is assessed by injecting it directly into the striatum of the brain in combination with NMDA.

[4] = maximal electroshock, prevention of tonic extensor seizures (anticonvulsant action); assay type: in vivo, mice (adult male CF1 strain); settings: for ED50: probit analysis
Procedure: Adult male CF1 strain mice (18 to 24 g body weight) are obtained from Charles River Laboratories. Mice are allowed free access to food and water prior to testing. Maximal electroshock is performed according to conventional methods (Krall, R. L., et al, Antiepileptic drug development: II. Anticonvulsant drug screening, Epilepsia 19:409-428 (1978). Electrical current (50 mA sinusoid at 60 Hz) is applied by metal corneal electrodes for 0.2 sec. This intensity of electrical current is five times the amount needed to produce tonic extensor seizures in untreated mice. Pretreatment of mice with known anticonvulsant drugs prevents tonic extensor seizures in a dose-related manner (Krall, R. L., et al, Antiepileptic drug development: II. Anticonvulsant drug screening, Epilepsia 19:409-428 (1978). A drug is prepared for intravenous administration by dissolution in aqueous medium with 0.9% sodium chloride. Probenecid is finely divided with mortar and pestle and suspended in 0.2% carboxymethylcellulose in water and given by intraperitoneal injection 30 minutes before administration of anticonvulsant drugs.
That is, groups of ten mice each are pretreated with probenecid (200 mg/kg IP) or saline vehicle. Thirty minutes later each group is given a known anticonvulsant dose of one of several anticonvulsant drugs. The time course of anticonvulsant activity is determined by maximal electroshock testing in groups of mice at various times after administration of the anticonvulsant.
Using procedures identical to those of Example 2, but with administration of several different doses of NBQX, ED50 values were determined by probit analysis (J. T. Litchfield and F. Wilcoxon in Journal of Pharmacology 96:99-113, 1949), with times of testing chosen at approximately the time of maximal anticonvulsant effect (30 seconds for NBQX alone and 10 minutes for NBQX with probenecid coadministration, from Example 1).

[5] = cited from earlier work; for Protection: MDL 100,748 65 mg/kg IV
CNS behavioral effects = assay type: in vivo, mice; settings: NBQX 25 mg/kg in combination with probenecid

SMILES: O=C(O)c1cc(O)c2c(Cl)cc(Cl)cc2n1 [5,7-dichlorokynurenic acid]
- ratio of area under the brain radioactivity curve (5-120 minutes) for the 1.3 mg/kg to 0.3 mg/kg dose [1]: 12
- transport from brain to blood [1]: actively transported from brain to blood by a saturable process
- penetration and/or retention of radiolabeled material in brain tissue [2]: very little penetration and/or retention of radiolabeled material is observed in brain tissue
- neuroprotective action ([3]; three different doses co-injected with 15 nmol NMDA, pretreatment with 200 mg/kg probenecid): significantly enhanced

SMILES: O=C(O)C1CN(CCCP(=O)(O)O)CCN1 (stereo not shown) [CPP, 4-(3-phosphonopropyl)-2-piperazinecarboxylic acid]
- duration of significant anticonvulsant action ([4]; CPP 3 mg/kg IV, with probenecid 200 mg/kg IP): 240 min
- percentage of mice protected from maximal electroshock seizures ([4]; CPP 3 mg/kg IV, with vs without probenecid coadministration): increased by probenecid coadministration at each time point tested
- duration of significant anticonvulsant action ([4]; CPP 3 mg/kg IV, without probenecid): 120 min

SMILES: O=C(O)CN=c1cc(C(=O)O)[nH]c2cc(Cl)cc(Cl)c12 [MDL 100,748, 4-[(carboxymethyl)imino]-5,7-dichloro-1,4-dihydro-2-quinolinecarboxylic acid]
- Protection ([5]; 5 min prior to QA, without probenecid): 9/10
- Protection ([5]; 5 min prior to QA, pretreated with probenecid 200 mg/kg IP 30 min before): 9/10
- Protection ([5]; 30 min prior to QA, without probenecid): 0/10
- Protection ([5]; 30 min prior to QA, pretreated with probenecid 200 mg/kg IP 30 min before): 7/10
- duration of protection against seizures induced by quinolinic acid ([5]; pretreated with probenecid, preliminary): longer duration of protection against seizures

SMILES: NS(=O)(=O)c1cccc2c1c([N+](=O)[O-])cc1nc(O)c(O)nc12 [NBQX, 2,3-dihydroxy-6-nitro-7-sulfamoyl-benzo(F)-quinoxaline]
- ED50 ([4]; Mus musculus, 0.5 min, NBQX alone, IV, tested at 30 seconds, read-out: ED50): 13.1 mg/kg
- time until which significant anticonvulsant actions are present ([4]; NBQX 25 mg/kg IV after saline vehicle): 3 min
- anticonvulsant action ([4]; NBQX 25 mg/kg IV after saline vehicle, 15 minutes after dosing): only insignificant anticonvulsant action is seen
- anticonvulsant effects ([4]; NBQX 25 mg/kg IV with probenecid 200 mg/kg IP, 15 minutes after dosing): significant anticonvulsant effects are seen
- anticonvulsant effects ([4]; NBQX 25 mg/kg IV with probenecid 200 mg/kg IP, 30 minutes after dosing): significant anticonvulsant effects are seen
- anticonvulsant effects ([4]; NBQX 25 mg/kg IV with probenecid 200 mg/kg IP, 1 hour after dosing): significant anticonvulsant effects are seen
- anticonvulsant effects ([4]; NBQX 25 mg/kg IV with probenecid 200 mg/kg IP, 2 hours after dosing): significant anticonvulsant effects are seen
- anticonvulsant effects (significant effects seen or not) ([4]; NBQX 25 mg/kg IV with probenecid 200 mg/kg IP, 4 hours after dosing): not 4 hours (14400 seconds) after dosing
- ED50 ([4]; NBQX IV coadministered with probenecid 200 mg/kg IP, tested at 10 minutes): 2.57 mg/kg
- increase in potency following probenecid coadministration ([4]; NBQX with vs without probenecid, ED50 values differ significantly (p <0.05)): approximately fivefold
- CNS behavioral effects (CNS behavioral effects): ptosis, profoundly decreased locomotor activity, greatly delayed righting reflex, and somnolence

SMILES: CCCN(CCC)S(=O)(=O)c1ccc(C(=O)O)cc1 [Probenecid]
- anticonvulsant actions ([4]; probenecid 200 mg/kg IP followed by IV sodium chloride vehicle): no anticonvulsant actions in any of 10 mice
- extent of brain damage ([3]; probenecid alone, in comparison to untreated animals): did not alter the extent of brain damage
